Measured values from ChEMBL document CHEMBL5120740, “Design, synthesis and biological evaluation of combretastatin A-4 sulfamate derivatives as potential anti-cancer agents” (RSC Med Chem, 2021).

Legend:
MGC-803 = assay: Antiproliferative activity against human MGC-803 cells assessed as reduction in cell viability after 24 hrs by CCK-8 assay; assay type: functional, cell-based; details: MGC-803, 24 h
HeLa = assay: Antiproliferative activity against human HeLa cells assessed as reduction in cell viability after 24 hrs by CCK-8 assay; assay type: functional, cell-based
Tubulin = Tubulin (Sus scrofa, UniProt P02554+P02550); assay: Inhibition of pig brain tubulin polymerization by spectrophotometric method; assay type: tissue-based
MCF7 = assay: Antiproliferative activity against human MCF7 cells assessed as reduction in cell viability after 24 hrs by CCK-8 assay; assay type: functional, cell-based; details: MCF7, 24 h
HepG2 = assay: Antiproliferative activity against human HepG2 cells assessed as reduction in cell viability after 24 hrs by CCK-8 assay; assay type: functional, cell-based; details: HepG2, 24 h
MKN-45 = assay: Antiproliferative activity against human MKN-45 cells assessed as reduction in cell viability after 24 hrs by CCK-8 assay; assay type: functional, cell-based; details: MKN-45, 24 h
HCT-116 = assay: Antiproliferative activity against human HCT-116 cells assessed as reduction in cell viability after 24 hrs by CCK-8 assay; assay type: functional, cell-based; details: HCT-116, 24 h
[1] = Inhibition of Arylsulfatase (unknown origin) using potassium p-nitrophenyl sulfate as substrate incubated for 5 mins; design: species or system Homo sapiens
[2] = Inhibition of bovine brain tubulin polymerization by spectrophotometric method; assay type: tissue-based, Bos taurus

COc1ccc(/C=C/c2cc(OC)c(OC)c(OC)c2)cc1OS(N)(=O)=O
IC50 (MGC-803): 2.98 µM
IC50 (HeLa): 4.5 µM
IC50 (Tubulin): 55.7 µM
IC50 (MCF7): 5.44 µM
IC50 (HepG2): 0.87 µM
IC50 (MKN-45): 10.5 µM
IC50 (HCT-116): 1.57 µM
IC50 [1]: 12.9 µM

COc1ccc(CCc2cc(OC)c(OC)c(OC)c2)cc1OS(N)(=O)=O
IC50 (MGC-803): 3.61 µM
IC50 (HeLa): 9.04 µM
IC50 (Tubulin): > 100 µM
IC50 (MCF7): 5.91 µM
IC50 (HepG2): 1.06 µM
IC50 (MKN-45): 11.9 µM
IC50 (HCT-116): 2.63 µM
IC50 [1]: > 100 µM

COc1cc(/C=C/c2ccc(OC(F)F)c(OS(N)(=O)=O)c2)cc(OC)c1OC
IC50 (MGC-803): 9.24 µM
IC50 (HeLa): 8.42 µM
IC50 (MCF7): 13.8 µM
IC50 (HepG2): 5.54 µM
IC50 (MKN-45): 13.8 µM
IC50 (HCT-116): 12.8 µM

COc1cc(/C=C\c2cccc(OS(N)(=O)=O)c2)cc(OC)c1OC
IC50 (MGC-803): 8.53 µM
IC50 (HeLa): 16.3 µM
IC50 (Tubulin): > 100 µM
IC50 (MCF7): 11.1 µM
IC50 (HepG2): 9.36 µM
IC50 (MKN-45): 15.3 µM
IC50 (HCT-116): 9.5 µM
IC50 [1]: 0.47 µM

COc1cc(/C=C\c2ccc(OC(F)F)c(OS(N)(=O)=O)c2)cc(OC)c1OC
IC50 (MGC-803): 9 µM
IC50 (HeLa): 7.82 µM
IC50 (Tubulin): 72.6 µM
IC50 (MCF7): 0.29 µM
IC50 (HepG2): 4.81 µM
IC50 (MKN-45): 12.5 µM
IC50 (HCT-116): 9.11 µM
IC50 [1]: 4.64 µM

COc1cc(/C=C/c2cccc(OS(N)(=O)=O)c2)cc(OC)c1OC
IC50 (MGC-803): 27 µM
IC50 (HeLa): 19 µM
IC50 (MCF7): 27.4 µM
IC50 (HepG2): 11.8 µM
IC50 (MKN-45): 25 µM
IC50 (HCT-116): 40.3 µM

COc1cc(CCc2cccc(OS(N)(=O)=O)c2)cc(OC)c1OC
IC50 (MGC-803): 17.6 µM
IC50 (HeLa): 27.1 µM
IC50 (MCF7): > 100 µM
IC50 (HepG2): 12 µM
IC50 (MKN-45): 25.7 µM
IC50 (HCT-116): 52.5 µM

COc1ccc(/C=C\c2cc(OC)c(OC)c(OC)c2)cc1NS(N)(=O)=O
IC50 (MGC-803): 0.5 µM
IC50 (HeLa): 0.27 µM
IC50 (Tubulin): 86.2 µM
IC50 (MCF7): 11.2 µM
IC50 (HepG2): 0.75 µM
IC50 (MKN-45): 9.56 µM
IC50 (HCT-116): 3.29 µM
IC50 [1]: > 100 µM

CNS(=O)(=O)Oc1cc(/C=C\c2cc(OC)c(OC)c(OC)c2)ccc1OC
IC50 (MGC-803): 0.0037 µM
IC50 (HeLa): 0.0034 µM
IC50 (Tubulin): 1.8 µM
IC50 (MCF7): 0.53 µM
IC50 (HepG2): 0.0039 µM
IC50 (MKN-45): 0.0073 µM
IC50 (HCT-116): 0.0113 µM
IC50 [1]: > 100 µM

CCOc1ccc(/C=C\c2cc(OC)c(OC)c(OC)c2)cc1OS(N)(=O)=O
IC50 (MGC-803): 0.27 µM
IC50 (HeLa): 0.48 µM
IC50 (Tubulin): 3.1 µM
IC50 (MCF7): 0.3 µM
IC50 (HepG2): 0.41 µM
IC50 (MKN-45): 0.32 µM
IC50 (HCT-116): 0.55 µM
IC50 [1]: 90.2 µM

CCOc1ccc(CCc2cc(OC)c(OC)c(OC)c2)cc1OS(N)(=O)=O
IC50 (MGC-803): 3.59 µM
IC50 (HeLa): 2.93 µM
IC50 (MCF7): 14.8 µM
IC50 (HepG2): 3.65 µM
IC50 (MKN-45): 7.67 µM
IC50 (HCT-116): 10.2 µM

COc1ccc(/C=C\c2cc(OC)c(OC)c(OC)c2)cc1OS(=O)(=O)N(C)C
IC50 (MGC-803): 7.14 µM
IC50 (HeLa): 14.3 µM
IC50 (Tubulin): 12.5 µM
IC50 (MCF7): 11.1 µM
IC50 (HepG2): 9.96 µM
IC50 (MKN-45): 8.95 µM
IC50 (HCT-116): 0.37 µM
IC50 [1]: > 100 µM

COc1ccc(/C=C/c2cc(OC)c(OC)c(OC)c2)cc1NS(N)(=O)=O
IC50 (MGC-803): 6.19 µM
IC50 (HeLa): 0.38 µM
IC50 (MCF7): 17.1 µM
IC50 (HepG2): 7.53 µM
IC50 (MKN-45): 18.9 µM
IC50 (HCT-116): 8.65 µM

COc1ccc(/C=C\c2cc(OC)c(OC)c(OC)c2)cc1OS(N)(=O)=O
IC50 (MGC-803): 0.0047 µM
IC50 (HeLa): 0.0061 µM
IC50 (Tubulin): 6.6 µM
IC50 (MCF7): 0.11 µM
IC50 (HepG2): 0.0036 µM
IC50 (MKN-45): 0.0095 µM
IC50 (HCT-116): 0.005 µM
IC50 [1]: 6.16 µM

COc1ccc(CCc2cc(OC)c(OC)c(OC)c2)cc1NS(N)(=O)=O
IC50 (MGC-803): 8.21 µM
IC50 (HeLa): 2.93 µM
IC50 (MCF7): 20.1 µM
IC50 (HepG2): 8.1 µM
IC50 (MKN-45): 73.9 µM
IC50 (HCT-116): 30.6 µM

CCOc1ccc(/C=C/c2cc(OC)c(OC)c(OC)c2)cc1OS(N)(=O)=O
IC50 (MGC-803): 7.63 µM
IC50 (HeLa): 5.64 µM
IC50 (MCF7): 13.7 µM
IC50 (HepG2): 2.63 µM
IC50 (MKN-45): 8.05 µM
IC50 (HCT-116): 9.12 µM

COc1cc(CCc2ccc(OC(F)F)c(OS(N)(=O)=O)c2)cc(OC)c1OC
IC50 (MGC-803): 23.3 µM
IC50 (HeLa): 35.6 µM
IC50 (MCF7): 52.7 µM
IC50 (HepG2): 15.9 µM
IC50 (MKN-45): 71.4 µM
IC50 (HCT-116): 26.5 µM

COc1cc2c(cc1O)CC[C@@H]1[C@@H]2CC[C@]2(C)[C@@H](O)CC[C@@H]12 [2-METHOXYESTRADIOL]
IC50 [2]: 40 µM

COc1ccc(/C=C\c2cc(OC)c(OC)c(OC)c2)cc1O [COMBRETASTATIN A4]
IC50 (MGC-803): 0.006 µM
IC50 (MCF7): 0.14 µM
IC50 (HepG2): 0.0029 µM
IC50 (MKN-45): 0.0081 µM
IC50 (HCT-116): 0.0047 µM
IC50 [1]: > 100 µM

C[C@]12CC[C@@H]3c4ccc(OS(N)(=O)=O)cc4CC[C@H]3[C@@H]1CCC2=O [EMATE]
IC50 (MGC-803): 0.48 µM
IC50 (HeLa): 0.63 µM
IC50 (Tubulin): 25.9 µM
IC50 (MCF7): 0.07 µM
IC50 (HepG2): 0.85 µM
IC50 (MKN-45): 0.54 µM
IC50 (HCT-116): 0.9 µM
IC50 [1]: 5.01 µM
